# Experimental data from article PMC9289467, “A Novel Multifunctional 5,6-Dimethoxy-Indanone-Chalcone-Carbamate Hybrids Alleviates Cognitive Decline in Alzheimer’s Disease by Dual Inhibition of Acetylcholinesterase and Inflammation” (Frontiers in Aging Neuroscience, 2022).
# Assays:
# [1] = biological target: T1, pre-formed Aβ42-AChE fibrils complex (Homo sapiens, UniProt P22303); test: Disaggregation of pre-formed Aβ42-AChE fibrils (ThT); format: biochemical; conditions: Aβ42 pre-aggregated with AChE for 2 days before co-incubation with AP5
# T1 construct: purchased Roche (AChE); Aladdin (Aβ42) R005282 (AChE); A118755 (Aβ42)
# T1 sequence (P22303 32-614, one chain of several): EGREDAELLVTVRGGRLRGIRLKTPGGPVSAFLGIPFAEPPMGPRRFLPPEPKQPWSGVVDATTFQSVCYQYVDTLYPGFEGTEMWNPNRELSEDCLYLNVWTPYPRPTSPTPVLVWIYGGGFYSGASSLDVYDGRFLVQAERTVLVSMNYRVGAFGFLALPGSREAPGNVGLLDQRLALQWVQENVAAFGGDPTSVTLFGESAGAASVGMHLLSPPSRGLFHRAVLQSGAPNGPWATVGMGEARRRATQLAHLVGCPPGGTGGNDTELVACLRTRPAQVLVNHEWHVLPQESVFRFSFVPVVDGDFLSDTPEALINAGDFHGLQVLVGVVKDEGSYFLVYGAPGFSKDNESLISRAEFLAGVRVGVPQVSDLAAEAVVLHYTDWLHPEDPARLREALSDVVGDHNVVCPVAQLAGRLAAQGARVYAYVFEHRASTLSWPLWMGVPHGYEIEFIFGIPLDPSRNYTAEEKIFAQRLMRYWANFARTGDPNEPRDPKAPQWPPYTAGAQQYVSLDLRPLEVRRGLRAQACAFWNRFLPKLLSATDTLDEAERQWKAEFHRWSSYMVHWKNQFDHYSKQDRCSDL
# Protocol: The effects of AP5 on Aβ fibril formation and pre-formed Aβ fibrils disaggregation were determined using a previously described method of Thioflavin T (ThT, T3516, Sigma Aldrich, St. Louis, MO, United States) fluorometry ([Jan et al., 2010]).
# Supplementary materials and methods … ...1 […]
# Supplementary Figure 1 … .....7
# Supplementary Figure 2 … .....7
# Supplementary materials and methods
# Prepations ofspecimen for pharmacokinetics analysis
# 24 h afterdosing. Brains were collected at0, 0.25, 0.5,2, 4,8 and 24 h after administration.Plasma extractions were performed by adding 90 μL methanol and 2 μL internalstandard letrozole (500 ng/mL) to a30 µL plasma sample. […]
# Then 90 μL methanol and 2 μL letrozolewere added to 30 µl brainhomogenates. The samples were vortexed for 3 min and centrifuged 15 min at25,000 g.The plasma and brainhomogenate were analyzed by UPLC-TSQ/MS (Thermo Fisher Scientific, Waltham, MA, USA). […]
# To study the kinetics of Aβ-AChE fibril complex formation, 10 μM Aβ was mixed with AChE (R005282, Roche, Basel, Switzerland) and different concentrations AP5 and incubated with 10 μM ThT and 50 mM glycine-NaOH (pH 8.5) at 37°C, the ThT fluorescence was continually measured for 24 h at 30 min intervals. […] Fluorescence emission at485 nm was measured on a Spectra MAX GeminiXS fluorometerat an excitation wavelength of 450 nm. […]
# ACh = test: Brain ACh level, Amplex Red kit, APP/PS1 mice; format: in vivo, mouse; conditions: AP5 40 mg/kg intragastric once daily 5 months, vs APP/PS1 mice
# Protocol: APP/PS1 mice of ages 6 months were randomly divided into vehicle (APP/PS1, n = 10) and treatment groups (AP5, n = 10), which were intragastrically administered with AP5 (40 mg/kg) once daily for consecutive 5 months. AP5 was dissolved in distilled water containing 1% sodium carboxymethyl cellulose.
# The brain samples were weighed, homogenized in PBS solution, and centrifuged for 20 min at 25,000 g at 4°C. Amplex® Red acetylcholinesterase/acetylcholine assay kit (A12217, Thermo Fisher Scientific) was used to detect AChE activity and ACh levels in the supernatant in accordance with the manufacturer’s instructions.
# Briefly, for ACh assay, the reactions were started by adding 100 µL of the Amplex Red reagent, HRP, choline oxidase, AChE working solution to each microplate well containing the controls and samples. For AChE assay, detection cocktail solution containing ACh, Amplex Red, choline oxidase and horseradish peroxidase was added toeach well. Assay plates were incubated at room temperature for 30 min and protected from light, followed by detecting fluorescence of resorufin (λex = 544 nm, λem = 590 nm) in a fluorescence microplate reader.
# After deparaffinization and antigen retrieval, the sections were incubated with 0.3% hydrogen peroxide (H2O2) to inhibit endogenous peroxidase activity for 20 min and blocked by goat serum for 30 min at37°C. […]
# Aβ42 oligomers = biological target: T2, Aβ42 oligomers (Homo sapiens, UniProt P05067); test: Aβ42 self-oligomerization dot blot (A11 antibody); format: biochemical; conditions: oligomer-specific antibody A11
# T2 construct: purchased Aladdin A118755
# T2 sequence (P05067 672-713 limits assumed): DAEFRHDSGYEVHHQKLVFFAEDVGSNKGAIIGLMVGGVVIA
# Protocol: The formation of Aβ40 or Aβ42 oligomers was monitored by dot blot with oligomer-specific antibody. Briefly, the resulting Aβ film was dissolved in ddH2O to form a 100 μM solution, and then the oligomerization reaction ([Kayed et al., 2003]) was initiated in absence or presence of different concentrations of AP5. An aliquot (2 μL) of each solution was dripped on a nitrocellulose membrane. The membrane was blocked with 5% non-fat milk in TBS for 1 h, incubated with the anti-β amyloid (MOAB-2, NBP2-13075SS, Novus Biologicals, Colorado, United States), anti-amyloid oligomers (A11, NBP1-97930, Novus Biologicals), or anti-amyloid fibrils (OC, NBP1-97930, Novus Biologicals) antibodies overnight at 4°C. The membrane was then incubated using HRP-conjugated secondary antibodies at room temperature for 1 h and then developed with ECL.
compound,measurement,setting,value
"CCN(C)C(=O)Oc1cccc(/C=C2\Cc3cc(OC)c(OC)cc3C2=O)c1 [AP5, (E)-3-((5,6-dimethoxy-1-oxo-1,3-dihydro-2H-inden-2-ylidene)-methyl)phenylethyl(methyl)carbamate]","ThT fluorescence intensity, disaggregation of pre-formed Aβ42 fibrils",[1],marked decline of ThT fluorescence intensity
same,ACh levels in cortex and hippocampus,ACh,elevated levels of ACh
same,levels of oligomeric Aβ42,Aβ42 oligomers,decreased the levels
